Reference: paper PMC10408569, “Recruitment of hexahydroquinoline as anticancer scaffold targeting inhibition of wild and mutants EGFR (EGFR^WT, EGFR^T790M, and EGFR^L858R)” (Journal of Enzyme Inhibition and Medicinal Chemistry, 2023)

How the values were obtained:
MCF7 = experiment: NCI-60 anticancer screening (SRB); type: cell-based; conditions: Homo sapiens; MCF7, breast cancer; one dose 10 μM; read-out: Growth Inhibition Percentage (GI %)
DU-145 = experiment: NCI-60 anticancer screening (SRB); type: cell-based; conditions: Homo sapiens; DU-145, prostate cancer; one dose 10 μM; read-out: Growth Inhibition Percentage (GI %)
SF-268 = experiment: NCI-60 anticancer screening (SRB); type: cell-based; conditions: Homo sapiens; SF-268, CNS cancer; one dose 10 μM; read-out: Growth Inhibition Percentage (GI %)
SN 12C = experiment: NCI-60 anticancer screening (SRB); type: cell-based; conditions: Homo sapiens, SN12C; SN 12C, renal cancer; one dose 10 μM; read-out: Growth Inhibition Percentage (GI %)
SF-539 = experiment: NCI-60 anticancer screening (SRB); type: cell-based; conditions: Homo sapiens; SF-539, CNS cancer; one dose 10 μM; read-out: Growth Inhibition Percentage (GI %)
TK-10 = experiment: NCI-60 anticancer screening (SRB); type: cell-based; conditions: Homo sapiens; TK-10, renal cancer; one dose 10 μM; read-out: Growth Inhibition Percentage (GI %)
HCT-116 = experiment: NCI-60 anticancer screening (SRB); type: cell-based; conditions: Homo sapiens; HCT-116, colon cancer; one dose 10 μM; read-out: Growth Inhibition Percentage (GI %)
NCI/ADR-RES = experiment: NCI-60 anticancer screening (SRB); type: cell-based; conditions: Homo sapiens, ovarian cancer, one dose 10 μM, read-out: Growth Inhibition Percentage (GI %)
CCRF-CEM = experiment: NCI-60 anticancer screening (SRB); type: cell-based; conditions: Homo sapiens, leukemia, one dose 10 μM, read-out: Growth Inhibition Percentage (GI %)
MDA-MB-468 = experiment: NCI-60 anticancer screening (SRB); type: cell-based; conditions: Homo sapiens; MDA-MB-468, breast cancer; one dose 10 μM; read-out: Growth Inhibition Percentage (GI %)
SF-295 = experiment: NCI-60 anticancer screening (SRB); type: cell-based; conditions: Homo sapiens; SF-295, CNS cancer; one dose 10 μM; read-out: Growth Inhibition Percentage (GI %)
BT-549 = experiment: NCI-60 anticancer screening (SRB); type: cell-based; conditions: Homo sapiens; BT-549, breast cancer; one dose 10 μM; read-out: Growth Inhibition Percentage (GI %)
EGFR^L858R = EGFR^L858R (Homo sapiens, UniProt P00533, L858R); experiment: biochemical
LOX IMVI = experiment: NCI-60 anticancer screening (SRB); type: cell-based; conditions: Homo sapiens, melanoma, one dose 10 μM, read-out: Growth Inhibition Percentage (GI %)
RXF 393 = experiment: NCI-60 anticancer screening (SRB); type: cell-based; conditions: Homo sapiens; RXF 393, renal cancer; one dose 10 μM; read-out: Growth Inhibition Percentage (GI %)
EGFR^T790M = EGFR^T790M (Homo sapiens, UniProt P00533, T790M); experiment: biochemical
OVCAR-5 = experiment: NCI-60 anticancer screening (SRB); type: cell-based; conditions: Homo sapiens; OVCAR-5, ovarian cancer; one dose 10 μM; read-out: Growth Inhibition Percentage (GI %)
SNB-19 = experiment: NCI-60 anticancer screening (SRB); type: cell-based; conditions: Homo sapiens; SNB-19, CNS cancer; one dose 10 μM; read-out: Growth Inhibition Percentage (GI %)
HCC-2998 = experiment: NCI-60 anticancer screening (SRB); type: cell-based; conditions: Homo sapiens; HCC-2998, colon cancer; one dose 10 μM; read-out: Growth Inhibition Percentage (GI %)
U251 = experiment: NCI-60 anticancer screening (SRB); type: cell-based; conditions: Homo sapiens, U-251; U251, CNS cancer; one dose 10 μM; read-out: Growth Inhibition Percentage (GI %)
NCI-H522 = experiment: NCI-60 anticancer screening (SRB); type: cell-based; conditions: Homo sapiens; NCI-H522, NSC lung cancer; one dose 10 μM; read-out: Growth Inhibition Percentage (GI %)
COLO 205 = experiment: NCI-60 anticancer screening (SRB); type: cell-based; conditions: Homo sapiens; COLO 205, colon cancer; one dose 10 μM; read-out: Growth Inhibition Percentage (GI %)
HS 578T = experiment: NCI-60 anticancer screening (SRB); type: cell-based; conditions: Homo sapiens; HS 578T, breast cancer; one dose 10 μM; read-out: Growth Inhibition Percentage (GI %)
OVCAR-3 = experiment: NCI-60 anticancer screening (SRB); type: cell-based; conditions: Homo sapiens; OVCAR-3, ovarian cancer; one dose 10 μM; read-out: Growth Inhibition Percentage (GI %)
UO-31 = experiment: NCI-60 anticancer screening (SRB); type: cell-based; conditions: Homo sapiens; UO-31, renal cancer; one dose 10 μM; read-out: Growth Inhibition Percentage (GI %)
ACHN = experiment: NCI-60 anticancer screening (SRB); type: cell-based; conditions: Homo sapiens, renal cancer, one dose 10 μM, read-out: Growth Inhibition Percentage (GI %)
RPMI-8226 = experiment: NCI-60 anticancer screening (SRB); type: cell-based; conditions: Homo sapiens; RPMI-8226, leukemia; one dose 10 μM; read-out: Growth Inhibition Percentage (GI %)
NCI-H322M = experiment: NCI-60 anticancer screening (SRB); type: cell-based; conditions: Homo sapiens, NSC lung cancer, one dose 10 μM, read-out: Growth Inhibition Percentage (GI %)
SK-MEL-2 = experiment: NCI-60 anticancer screening (SRB); type: cell-based; conditions: Homo sapiens; SK-MEL-2, melanoma; one dose 10 μM; read-out: Growth Inhibition Percentage (GI %)
EGFR^WT = EGFR^WT (Homo sapiens, UniProt P00533); experiment: EGFR kinase inhibitory assay (HTRF)
NCI-H226 = experiment: NCI-60 anticancer screening (SRB); type: cell-based; conditions: Homo sapiens; NCI-H226, NSC lung cancer; one dose 10 μM; read-out: Growth Inhibition Percentage (GI %)

Chain of EGFR^T790M (P00533 25-1210 T790M): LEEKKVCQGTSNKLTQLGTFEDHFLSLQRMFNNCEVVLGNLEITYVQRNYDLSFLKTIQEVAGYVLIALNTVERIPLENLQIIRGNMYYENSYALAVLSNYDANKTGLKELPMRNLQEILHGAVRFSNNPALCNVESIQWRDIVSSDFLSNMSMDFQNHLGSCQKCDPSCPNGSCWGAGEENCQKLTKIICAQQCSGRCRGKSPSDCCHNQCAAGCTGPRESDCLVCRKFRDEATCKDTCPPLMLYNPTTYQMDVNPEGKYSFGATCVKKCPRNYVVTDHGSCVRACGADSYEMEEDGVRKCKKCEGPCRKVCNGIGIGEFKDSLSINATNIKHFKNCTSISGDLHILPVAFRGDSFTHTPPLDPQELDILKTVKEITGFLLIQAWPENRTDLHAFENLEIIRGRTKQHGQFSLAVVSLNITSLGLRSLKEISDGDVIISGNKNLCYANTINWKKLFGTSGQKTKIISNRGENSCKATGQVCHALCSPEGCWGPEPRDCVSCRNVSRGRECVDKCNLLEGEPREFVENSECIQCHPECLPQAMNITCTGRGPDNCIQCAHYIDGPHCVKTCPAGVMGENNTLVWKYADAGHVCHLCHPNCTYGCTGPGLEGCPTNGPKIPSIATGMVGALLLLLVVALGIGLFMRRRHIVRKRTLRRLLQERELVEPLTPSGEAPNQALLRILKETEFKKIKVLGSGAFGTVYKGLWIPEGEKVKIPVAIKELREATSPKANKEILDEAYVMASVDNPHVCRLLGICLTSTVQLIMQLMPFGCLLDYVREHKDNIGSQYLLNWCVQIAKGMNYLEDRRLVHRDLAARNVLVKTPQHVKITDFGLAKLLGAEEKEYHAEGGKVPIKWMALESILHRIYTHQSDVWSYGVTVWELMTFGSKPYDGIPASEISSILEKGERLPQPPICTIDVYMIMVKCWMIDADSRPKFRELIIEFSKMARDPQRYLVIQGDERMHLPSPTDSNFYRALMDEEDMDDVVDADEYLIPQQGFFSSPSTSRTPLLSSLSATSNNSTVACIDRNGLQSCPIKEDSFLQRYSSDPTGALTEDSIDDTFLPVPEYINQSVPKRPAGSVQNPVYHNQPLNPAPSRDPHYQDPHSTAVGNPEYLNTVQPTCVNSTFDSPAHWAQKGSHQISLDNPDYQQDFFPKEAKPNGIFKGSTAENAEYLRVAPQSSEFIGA
Chain of EGFR^L858R (P00533 25-1210 L858R): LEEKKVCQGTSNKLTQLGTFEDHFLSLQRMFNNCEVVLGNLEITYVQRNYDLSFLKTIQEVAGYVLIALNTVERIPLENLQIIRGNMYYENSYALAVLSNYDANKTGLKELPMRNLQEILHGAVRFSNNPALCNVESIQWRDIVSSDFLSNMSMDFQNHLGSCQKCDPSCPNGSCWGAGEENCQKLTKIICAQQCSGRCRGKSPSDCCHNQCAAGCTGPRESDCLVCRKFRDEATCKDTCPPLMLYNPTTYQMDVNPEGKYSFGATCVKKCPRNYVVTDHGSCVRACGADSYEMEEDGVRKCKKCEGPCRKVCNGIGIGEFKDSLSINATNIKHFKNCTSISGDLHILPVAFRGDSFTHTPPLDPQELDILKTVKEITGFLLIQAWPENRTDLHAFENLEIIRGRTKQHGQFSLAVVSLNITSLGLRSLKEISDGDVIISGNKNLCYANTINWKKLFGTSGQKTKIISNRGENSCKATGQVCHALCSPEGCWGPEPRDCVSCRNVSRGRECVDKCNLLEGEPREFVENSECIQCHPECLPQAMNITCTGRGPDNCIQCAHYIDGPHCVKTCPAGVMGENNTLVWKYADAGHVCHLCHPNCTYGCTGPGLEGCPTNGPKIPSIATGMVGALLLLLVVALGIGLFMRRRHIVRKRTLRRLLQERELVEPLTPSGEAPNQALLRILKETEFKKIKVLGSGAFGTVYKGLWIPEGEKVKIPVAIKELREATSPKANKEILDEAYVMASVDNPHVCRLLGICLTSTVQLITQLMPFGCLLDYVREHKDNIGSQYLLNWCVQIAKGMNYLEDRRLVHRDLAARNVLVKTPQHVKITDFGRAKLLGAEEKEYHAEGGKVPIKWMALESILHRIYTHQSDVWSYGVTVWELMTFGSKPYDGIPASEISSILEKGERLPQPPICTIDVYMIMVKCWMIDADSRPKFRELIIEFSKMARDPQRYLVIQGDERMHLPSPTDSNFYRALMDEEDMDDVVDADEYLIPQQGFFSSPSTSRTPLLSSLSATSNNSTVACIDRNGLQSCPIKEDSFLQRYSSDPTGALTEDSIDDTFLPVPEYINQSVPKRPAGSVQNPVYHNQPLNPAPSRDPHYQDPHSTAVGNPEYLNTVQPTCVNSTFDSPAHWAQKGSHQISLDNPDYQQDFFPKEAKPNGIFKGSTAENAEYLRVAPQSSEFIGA
Chain of EGFR^WT (P00533 25-1210): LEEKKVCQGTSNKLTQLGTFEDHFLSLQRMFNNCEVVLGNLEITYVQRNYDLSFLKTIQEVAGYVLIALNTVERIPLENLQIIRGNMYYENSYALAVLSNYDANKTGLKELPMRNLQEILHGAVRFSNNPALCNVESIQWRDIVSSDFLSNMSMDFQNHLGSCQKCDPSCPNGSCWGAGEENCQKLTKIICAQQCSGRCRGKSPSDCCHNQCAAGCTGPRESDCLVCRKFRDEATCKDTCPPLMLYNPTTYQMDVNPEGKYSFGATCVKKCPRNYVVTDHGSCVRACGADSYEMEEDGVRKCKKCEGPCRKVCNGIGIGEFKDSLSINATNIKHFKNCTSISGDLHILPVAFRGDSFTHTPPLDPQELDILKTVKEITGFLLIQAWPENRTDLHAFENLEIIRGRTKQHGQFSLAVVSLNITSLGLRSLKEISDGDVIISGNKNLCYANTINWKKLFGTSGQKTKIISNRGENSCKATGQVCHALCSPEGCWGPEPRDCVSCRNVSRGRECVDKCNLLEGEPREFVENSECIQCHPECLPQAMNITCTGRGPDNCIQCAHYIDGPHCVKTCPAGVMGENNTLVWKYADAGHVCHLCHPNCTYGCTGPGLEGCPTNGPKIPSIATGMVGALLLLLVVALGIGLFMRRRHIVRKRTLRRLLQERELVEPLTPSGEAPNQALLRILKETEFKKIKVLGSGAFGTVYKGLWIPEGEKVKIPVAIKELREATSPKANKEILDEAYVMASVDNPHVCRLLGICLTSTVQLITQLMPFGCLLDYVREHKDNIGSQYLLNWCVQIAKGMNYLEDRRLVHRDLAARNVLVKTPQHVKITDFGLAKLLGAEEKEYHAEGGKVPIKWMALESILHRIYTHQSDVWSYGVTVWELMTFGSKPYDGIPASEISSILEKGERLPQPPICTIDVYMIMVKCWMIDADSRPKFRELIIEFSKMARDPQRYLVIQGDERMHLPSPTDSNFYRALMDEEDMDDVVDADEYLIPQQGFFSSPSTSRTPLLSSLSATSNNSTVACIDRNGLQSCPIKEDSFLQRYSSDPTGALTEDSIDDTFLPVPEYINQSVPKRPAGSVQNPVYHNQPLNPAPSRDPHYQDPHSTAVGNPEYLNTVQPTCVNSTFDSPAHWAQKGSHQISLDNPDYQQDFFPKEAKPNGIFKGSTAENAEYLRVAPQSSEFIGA

SMILES	inhibition at 10 µM (MCF7) [%]	inhibition at 10 µM (DU-145) [%]	inhibition at 10 µM (SF-268) [%]	inhibition at 10 µM (SN 12C) [%]	inhibition at 10 µM (SF-539) [%]	inhibition at 10 µM (TK-10) [%]	inhibition at 10 µM (HCT-116) [%]	inhibition at 10 µM (NCI/ADR-RES) [%]	inhibition at 10 µM (CCRF-CEM) [%]	inhibition at 10 µM (MDA-MB-468) [%]	inhibition at 10 µM (SF-295) [%]	inhibition at 10 µM (BT-549) [%]	inhibition at 10 µM (LOX IMVI) [%]	inhibition at 10 µM (RXF 393) [%]	inhibition at 10 µM (OVCAR-5) [%]	inhibition at 10 µM (SNB-19) [%]	inhibition at 10 µM (HCC-2998) [%]	inhibition at 10 µM (U251) [%]	inhibition at 10 µM (NCI-H522) [%]	inhibition at 10 µM (COLO 205) [%]	other results
CCOC(=O)C1=C(N)N(c2ccccc2)C2=C(C(=O)CC(C)(C)C2)C1c1ccccc1Cl (racemic) [6a, (±)-Ethyl 2-amino-4–(2-chlorophenyl)-7,7-dimethyl-5-oxo-1-phenyl-1,4,5,6,7,8-hexahydroquinoline-3-carboxylate]	44	12	20	25	< 10	< 10	59	27	52	50	25	22	15	22	14	30	15	21	43	35	IC50 (EGFR^L858R): 0.49 ± 0.004 µM; IC50 (EGFR^T790M): 0.61 ± 0.005 µM; inhibition at 10 µM (HS 578T): < 10%; inhibition at 10 µM (OVCAR-3): 38%; inhibition at 10 µM (UO-31): 45%; inhibition at 10 µM (ACHN): 31%; inhibition at 10 µM (RPMI-8226): 78%; inhibition at 10 µM (NCI-H322M): 18%; inhibition at 10 µM (SK-MEL-2): 43%; IC50 (EGFR^WT): 0.358 ± 0.16 µM; inhibition at 10 µM (NCI-H226): 24%
CCOC(=O)C1=C(N)N(c2ccc(Cl)cc2)C2=C(C(=O)CC(C)(C)C2)C1c1ccccn1 (racemic) [12c, (±)-Ethyl 2-amino-1–(4-chlorophenyl)-7,7-dimethyl-5-oxo-4-(pyridine-2-yl)-1,4,5,6,7,8-hexahydroquinoline-3-carboxylate]	11	< 10	< 10	< 10	< 10	< 10	13	< 10	< 10	< 10	< 10	< 10	< 10	< 10	< 10	< 10	< 10	< 10	11	< 10	inhibition at 10 µM (HS 578T): < 10%; inhibition at 10 µM (OVCAR-3): < 10%; inhibition at 10 µM (UO-31): 23%; inhibition at 10 µM (ACHN): < 10%; inhibition at 10 µM (RPMI-8226): < 10%; inhibition at 10 µM (NCI-H322M): < 10%; inhibition at 10 µM (SK-MEL-2): < 10%; inhibition at 10 µM (NCI-H226): < 10%
